The text below walks through data of US12410220B2, “Modulation of mammalian cell lineage by synthetic immodulins” (priority 2021, dated 2025).

Marks after values point to notes of the source that are not given here. Square brackets hold non-standard residues; d marks the D form. Ends that are not written are not given here. Peptide text beside a SMILES is read from it.

In experiment [1] the target is T1, AA111-228 DNA-binding domain of RXR-alpha (RXRa-DBD) (Homo sapiens, UniProt P19793).
T1 construct: purchased Abcam, Cambridge, MA
T1 sequence (P19793 111-228): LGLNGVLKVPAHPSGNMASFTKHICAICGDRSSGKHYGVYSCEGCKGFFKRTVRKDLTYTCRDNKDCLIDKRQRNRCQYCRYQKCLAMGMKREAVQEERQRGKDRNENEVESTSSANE
Put plainly: Experiment 4A binding to RXRa-DBD. The note with it: 1 ug/well RXRa-DBD; 800 ng/well SA488-labelled peptide, 60 min; background subtracted. On the procedure:
Experiment 4A. Binding of immodulin peptides to AA111-228 DNA-binding domain of RXR-alpha (RXRa-DBD). 1 ug/well recombinant RXRa-DBD (Abcam, Cambridge, MA) was adsorbed to wells of a 96-well plate for 60 minutes at room temperature, then blocked with 200 uL 1% bovine serum albumin (BSA) in PBS buffer overnight. Plate was washed and 800 ng/well Streptavidin-Alexa 488 conjugate (SA488)-labelled immX peptide was added. The plate was incubated for 60 min at room temperature, washed and counted in a standard fluorometer (excitation/emission 485/525 nm). Background (buffer alone) was subtracted.

For experiment [2], the system named is HFF-1 human fibroblast cell line. Nature of the experiment: Collagen-1 ELISA in HFF-1 dermal fibroblasts. Format: cell-based. The note with it: peptide 2 uM, 72 hour incubation. As to the method: Immodulin peptides have potential untility in the field of cosmetics. HFF-1 human fibroblast cell line was obtained from the American Type Culture Collection (ATCC). Cells were grown in a T-75 flask in DMEM Medium containing 10% fetal bovine serum and penicillin-streptomycin at 37° C. in a humidified, 5% CO2 incubator. Cells (100 µl, 2,000 cells/well) were plated in a 96-well plate and incubated overnight at 37° C. in a humidified, 5% CO2 incubator. Next day, 10 µl/well of compounds were added (quadruplicate wells). After 72 hour incubation with the compound, supernatants were collected for Collagen-1 ELISA assay and cell viability was measured in a luminometer after the addition of 100 IL/well CellTiterGlo reagent (Promega Inc, Madison, WI) as recommended by the manufacturer. Collagen stimulating activity of immodulin peptides in HFF-1 dermal fibroblasts: Peptides were added to cells at 2 uM. COL1 immunoreactivity was measured in the supernatants of cultured cells by ELISA using a rabbit monoclonal anti-COL1 primary antibody (Abcam, Cambridge, MA). Control (buffer) value of immunoreactivity was set to 100.
(An ELISA detects its analyte on a solid surface through an enzyme-linked reagent.)

A short description of experiment [3]: Ferric iron-binding assay of biotinylated immodulin peptides. The note with it: N-terminally biotinylated peptide, 400 ng per well, 60 min room temperature; immX3AVD = 100. The source says: N-terminally biotinylated versions of the peptides listed below were used in ferric iron-binding assays involving either an Alexa488-labeled streptavidin protocol (Binding Assay 1) or FITC-NTA assay (Binding Assay 2). Fluorescence was standardized to binding with immX3AVD control peptide (100) and the average of multiple experiments using both protocols is shown. P values are shown relative to the control immX3AVD peptide (**<0.05). D-amino acid residues are underlined in the sequences and the extension tripeptide of immX peptides is shown in bold font. Binding Assay 1 was done as follows: NTA coated 96-well plates (G-Biosciences, St. Louis, MO) were charged with ferric chloride and contacted with equimolar biotinylated peptide: streptavidin-A488 complex (400 ng peptide per well) for 60 min at room temperature, washed with phosphate-buffered saline (PBS) and read at 525 nm in a fluorescence counter. Binding Assay 2 was done as follows: Streptavidin coated 96-well plates (G-Biosciences, St. Louis, MO) were contacted with 400 ng peptide per well in PBS buffer for 60 minutes at room temperature, washed in PBS, then contacted with FITC-NTA (TRC, Toronto, Canada) complexed with equimolar ferric chloride (10× molar equivalent per well) for 60 min at room temperature, washed with PBS and read at 525 nm in a fluorescence counter.

The nature of experiment [4]: Experiment 4D binding to FITC-labelled hyaluronic acid. The settings on record: biotinylated peptide 1 ug/well; 1 ug FITC-labelled hyaluronic acid, 90 minutes. As to the method: (§1) Streptavidin-coated 96-well plates (G-Biosciences, St. Louis, MO) were pre-treated with biotinylated peptides [see Example 1 for key] at 1 ug/well, at room temperature for 60 minutes. The plate was washed with PBS buffer and then 1 ug FITC-labelled heparin or hyaluronic acid in 100 uL PBS buffer was added per well (all tests in quadruplicate). Incubation proceeded for 90 minutes at room temperature, followed by two PBS washes. The plate was read in a standard laboratory fluorometer (488/525 nm exitation/[…]) and the counts normalized for immX3 peptide binding=100. Values statistically above background are shown in bold font. **p<0.05 versus immX3AVD.

Experiment [5] can be described thus: Experiment 4D binding to FITC-labelled heparin. The settings on record: biotinylated peptide 1 ug/well; 1 ug FITC-labelled heparin, 90 minutes. On the procedure: as §1
For another experiment, the system named is THP1-Dual monocytes. Put plainly: THP1-Dual differentiation assay, immX3 peptide plus helper or inhibitor molecule. Format: cell-based, human. The note with it: immX3 peptide (330 nM) in all samples plus helper at the concentration given; immX3 with buffer = 100.0. On the procedure: Mammalian cell differentiation assays using THP1-Dual monocytes reporter cell line (Invivogen Inc, San Diego, CA) seeded at 2×10e5 cells per well in 96-well plates and cultured at 37 degrees C. in RPMI-1640 growth medium plus 10% fetal bovine serum and 1% penicillin/streptomycin, then treated for 24 hours with either 100 ng/ml Phorbol 12-myristate 13-acetate (PMA protocol; Cayman Chemical Company, Ann Arbor, MI) or a mixture of IL-4 (100 ng/ml), GM-CSF (100 ng/ml), TNF-alpha (20 ng/ml) and ionomycin (200 ng/ml) (Cytokine protocol; Peprotech, Rocky Hill, NJ). Peptide (330 nM) was then added, and incubation continued for an additional 24 hours. Culture supernatants were then assayed for CCL22. Plates with adherent cells were washed with PBS and assayed for immunoreactivity of surface markers such as CD169, Clec9a, Clec12a or MHCII using fuorescent tag- or biotin-labeled anti-human antibodies purchased from Miltenyi Biotec (Auburn, CA) and a relevant secondary detection reagent, or by fluorescence counts.
The THP1-Dual cell differentiation assay was carried out as described above in Example 2, using immX3 peptide (330 nM) in all samples plus the indicated helper or inhibitor molecule. AU=arbitrary ELISA units. **p<0.01.

In the case of `CSCC[C@H](NC(=O)[C@H](CO)NC(=O)[C@@H](NC(=O)[C@H](CCC(=O)O)NC(=O)[C@H](CS)NC(=O)[C@H](CCC(N)=O)NC(=O)[C@H](CCCNC(=N)N)NC(=O)[C@H](CO)NC(=O)[C@H](Cc1c[nH]cn1)NC(=O)[C@H](Cc1ccc(O)cc1)NC(=O)[C@H](Cc1ccccc1)NC(=O)CNC(=O)[C@H](CC(N)=O)NC(=O)[C@@H](N)CCCCN)[C@@H](C)O)C(=O)N[C@@H](CC(=O)O)C(=O)NCC(=O)N[C@@H](CCC(=O)O)C(=O)N[C@@H](C)C(=O)NCC(=O)N[C@@H](CC(C)C)C(=O)N[C@@H](CS)C(=O)N[C@@H](Cc1c[nH]c2ccccc12)C(=O)O` [imm1] (H-KNGFYHSRQCETSMDGEAGLCW-OH; N-terminus and C-terminus assumed), in experiment [1], the “Fluorescence, binding to RXRa-DBD” value is reported as 670±85. For the same molecule, the “COL1 immunoreactivity in supernatants, control (buffer) set to 100” value in experiment [2] was found to be 98. The “Ferric iron binding, fluorescence standardized to immX3AVD control peptide (100), Avg ± SD” value (shortened to “Ferric iron binding … Avg ± SD”) in experiment [3] is on record as 2.5 ± 1.6**.

As to `CSCC[C@H](NC(=O)[C@H](CCCCN)NC(=O)[C@H](CS)NC(=O)[C@H](CCC(N)=O)NC(=O)[C@H](CCCCN)NC(=O)[C@H](CC(C)C)NC(=O)[C@H](CC(N)=O)NC(=O)[C@H](Cc1ccc(O)cc1)NC(=O)[C@H](CC(C)C)NC(=O)CNC(=O)[C@H](Cc1c[nH]cn1)NC(=O)[C@@H](N)CCCCN)C(=O)N[C@@H](CO)C(=O)N[C@@H](CC(C)C)C(=O)N[C@@H](CC(N)=O)C(=O)NCC(=O)N[C@@H](CCC(N)=O)C(=O)N[C@@H](CCCNC(=N)N)C(=O)NCC(=O)N[C@@H](CCC(=O)O)C(=O)N[C@@H](CS)C(=O)N[C@@H](Cc1c[nH]c2ccccc12)C(=O)O` [imm2], the “Hyaluronate binding, counts normalized for immX3 peptide binding=100” value in experiment [4] is recorded as 3.1 ± 9.8. Also, in experiment [1], the “Fluorescence, binding to RXRa-DBD” value is 2±38. Also, in experiment [2], the “COL1 immunoreactivity in supernatants, control (buffer) set to 100” value is on record as 109. The “Ferric iron binding … Avg ± SD” value in experiment [3] is 1.6 ± 0.8**. Moreover, in experiment [5], the “Heparin binding, counts normalized for immX3 peptide binding=100” value amounted to 27.4 ± 22.9.

Regarding “GM-CSF: granulocyte-macrophage colony-stimulating factor; growth factor class”, the “CD169 (AU)” value in the experiment with THP1-Dual monocytes was 147.0 ± 15.3** AU.

Take Hyaluronic acid [reference compound]: the “CD169 (AU)” value in the experiment with THP1-Dual monocytes was found to be 110.5 ± 10.2 AU.

Consider Leptin: Growth factor class, for which the “CD169 (AU)” value with THP1-Dual monocytes was determined as 103.3 ± 11.6 AU.

As for “SLNPEWNETKGFYKKKQCRPSKGRKRGFCW[dA][dV][dD] (cysteine pairing not given here) [immX3K1dAdVdD]”, the “Hyaluronate binding, counts normalized for immX3 peptide binding=100” value in experiment [4] is reported as 101.9 ± 16.4. The “Ferric iron binding … Avg ± SD” value in experiment [3] came out at 108.2 ± 6.6. Also, the “Heparin binding, counts normalized for immX3 peptide binding=100” value in experiment [5] is given as 56.0 ± 7.3**.

With Transferrin: Fe-binding protein, the “CD169 (AU)” value with THP1-Dual monocytes was 126.8 ± 9.3** AU.

B1: CSF1: colony stimulating factor 1; growth factor class (protein, UniProt P09603 33-554, looked up)
Macrophage colony-stimulating …: EEVSEYCSHMIGSGHLQSLQRLIDSQMETSCQITFEFVDQEQLKDPVCYLKKAFLLVQDIMEDTMRFRDNTPNAIAIVQLQELSLRLKSCFTKDYEEHDKACVRTFYETPLQLLEKVKNVFNETKNLLDKDWNIFSKNCNNSFAECSSQDVVTKPDCNCLYPKAIPSSDPASVSPHQPLAPSMAPVAGLTWEDSEGTEGSSLLPGEQPLHTVDPGSAKQRPPRSTCQSFEPPETPVVKDSTIGGSPQPRPSVGAFNPGMEDILDSAMGTNWVPEEASGEASEIPVPQGTELSPSRPGGGSMQTEPARPSNFLSASSPLPASAKGQQPADVTGTALPRVGPVRPTGQDWNHTPQKTDHPSALLRDPPEPGSPRISSLRPQGLSNPSTLSAQPQLSRSHSSGSVLPLGELEGRRSTRDRRSPAEPEGGPASEGAARPLPRFNSVPLTDTGHERQSEGSFSPQLQESVFHLLVPSVILVLLAVGGLLFYRWRRRSHQEPQRADSPLEQPEGSPLTQDDRQVELPV
Turning to B1, in the experiment on THP1-Dual monocytes, the “CD169 (AU)” value is 108.0 ± 32.3 AU.
